Test system: WM3248 melanoma cells, 486 antibodies
Test: Reverse phase protein arrays (RPPA);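 as to RPPA ACC1.R.C: ratio of treated to vehicle (0 µM) normalized linear protein signal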;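 as to RPPA AMPK.a2 pS345.R.V: ratio of treated to vehicle (0 µM) normalized linear protein signal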;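 as to RPPA AMPKa pT172.R.C: ratio of treated to vehicle (0 µM) normalized linear protein signal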;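 as to RPPA ASNS.R.V: ratio of treated to vehicle (0 µM) normalized linear protein signal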;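 as to RPPA Akt1.R.V: ratio of treated to vehicle (0 µM) normalized linear protein signal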;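 as to RPPA Atg5.R.C: ratio of treated to vehicle (0 µM) normalized linear protein signal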;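 as to RPPA Bim.R.V: ratio of treated to vehicle (0 µM) normalized linear protein signal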
Type: cell-based, Human
Conditions: 10 uM
Text: Pellets were snap frozen in liquid nitrogen and shipped to MD Anderson Cancer Center core RPPA facility for RPPA analysis (Table S5). Three biological replicates for each sample were generated.
Nomenclatures on the RPPA heatmaps: name_of_antibody.species_of_antibody.status_of_antibody. V - antibody validated; C - validation of antibody in progress; Q - antibody nonspecific; E – under evaluation; antibodies raised in M - mouse, G - goat, R - rabbit, or T - rat.

CN(C)c1cccc(Nc2cc(-c3ccccc3)nc(C3CCNCC3)n2)c1 [ARN22089, N1,N1-dimethyl-N3-(6-phenyl-2-(piperidin-4-yl)pyrimidin-4-yl)benzene-1,3-diamine]
RPPA B7.H4.R.C (10W1): 1.035
RPPA B.Raf.R.C (10W1): 0.916
RPPA B.Raf_pS445.R.V (10W1): 0.953
RPPA BAP1.M.V (10W1): 0.957
RPPA BCL2A1.R.V (10W1): 1.947
RPPA BMK1.Erk5_pT218_Y220.R.V (10W1): 0.926
RPPA BRCA1.M.C (10W1): 1.059
RPPA BRD4.R.V (10W1): 1.134
RPPA Bad_pS112.R.V (10W1): 1.118
RPPA Bax.R.V (10W1): 1.004
RPPA Bcl2.R.C (10W1): 1.048
RPPA Bcl.xL.R.V (10W1): 1.112
RPPA Beclin.R.C (10W1): 1.064
RPPA Bim.R.V (10W1): 1.024
RPPA X4E.BP1.R.V (10W1): 0.716
RPPA X4E.BP1_pS65.R.V (10W1): 0.893
RPPA X4E.BP1_pT37_T46.R.V (10W1): 0.934
RPPA X14.3.3.zeta.R.V (10W1): 1.029
RPPA X14.3.3βR.V (10W1): 1.012
RPPA X14.3.3εM.C (10W1): 0.955
RPPA X53BP1.R.V (10W1): 0.984
RPPA b.Catenin.R.V (10W1): 0.868
RPPA b.Catenin_pT41_S45.R.V (10W1): 1.019
RPPA c.Abl.R.V (10W1): 1.140
RPPA c.Abl_pY412.R.C (10W1): 0.995
RPPA A.Raf_pS299.R.C (10W3): 0.989
RPPA ACC1.R.C (10W3): 0.761
RPPA ACC_pS79.R.V (10W3): 0.652
RPPA ACLY_pS455.R.V (10W3): 1.060
RPPA ACSL1.R.V (10W3): 0.743
RPPA ACVRL1.R.C (10W3): 1.047
RPPA ADAR1.M.V (10W3): 0.974
RPPA AMPK.a2_pS345.R.V (10W3): 1.012
RPPA AMPKa.R.C (10W3): 0.993
RPPA AMPKa_pT172.R.C (10W3): 0.770
RPPA AR.R.V (10W3): 0.980
RPPA ARID1A.R.C (10W3): 1.025
RPPA ASNS.R.V (10W3): 1.126
RPPA ATM.R.V (10W3): 0.864
RPPA ATM_pS1981.R.V (10W3): 1.016
RPPA ATP5A.M.C (10W3): 0.859
RPPA ATP5H.R.V (10W3): 1.047
RPPA ATR.R.V (10W3): 0.992
RPPA ATRX.R.C (10W3): 0.863
RPPA ATR_pS428.R.C (10W3): 1.076
RPPA AceCS1.R.V (10W3): 0.950
RPPA Akt1.R.V (10W3): 1.034
RPPA Akt1_pS473.R.V (10W3): 1.099
RPPA Akt2.R.V (10W3): 0.982
RPPA Akt2_pS474.R.C (10W3): 1.062
RPPA Akt.R.V (10W3): 0.811
RPPA Akt_pS473.R.V (10W3): 1.223
RPPA Akt_pT308.R.V (10W3): 1.196
RPPA Ambra1_pS52.R.C (10W3): 0.979
RPPA Annexin.I.M.V (10W3): 0.896
RPPA Annexin.VII.M.V (10W3): 0.983
RPPA Atg5.R.C (10W3): 0.843
RPPA Atg7.R.V (10W3): 0.986
RPPA Aurora.A.R.C (10W3): 1.109
RPPA Aurora.ABC_pT288_pT232_pT198.R.C (10W3): 0.933
RPPA Aurora.B.R.V (10W3): 1.003
RPPA Axl.R.V (10W3): 0.953
RPPA B7.H3.R.C (10W3): 1.031
RPPA B.Raf_pS445.R.V (10W3): 1.006
RPPA BAP1.M.V (10W3): 1.063
RPPA BCL2A1.R.V (10W3): 1.172
RPPA BMK1.Erk5_pT218_Y220.R.V (10W3): 0.935
RPPA BRCA1.M.C (10W3): 0.989
RPPA BRD4.R.V (10W3): 0.839
RPPA Bad_pS112.R.V (10W3): 1.059
RPPA Bak.R.C (10W3): 1.018
RPPA Bax.R.V (10W3): 0.972
RPPA Bcl.xL.R.V (10W3): 1.015
RPPA Beclin.R.C (10W3): 0.995
RPPA BiP.GRP78.M.C (10W3): 1.013
RPPA Bid.R.C (10W3): 1.021
RPPA Bim.R.V (10W3): 0.900
RPPA X4E.BP1.R.V (10W3): 0.590
RPPA X4E.BP1_pS65.R.V (10W3): 1.148
RPPA X4E.BP1_pT37_T46.R.V (10W3): 1.133
RPPA X14.3.3.zeta.R.V (10W3): 1.033
RPPA X14.3.3βR.V (10W3): 1.026
RPPA X14.3.3εM.C (10W3): 1.009
RPPA X53BP1.R.V (10W3): 0.920
RPPA b.Actin.R.C (10W3): 1.024
RPPA b.Catenin.R.V (10W3): 0.914
RPPA b.Catenin_pT41_S45.R.V (10W3): 1.012
RPPA c.Abl.R.V (10W3): 1.061
RPPA c.Abl_pY412.R.C (10W3): 0.963
RPPA c.IAP2.R.C (10W3): 1.023
C.Raf.R.C RPPA level (Average): 0.940
C.Raf_pS338.R.V RPPA level (Average): 0.978
CA9.R.C RPPA level (Average): 0.980
CD2.M.C RPPA level (Average): 1.035
CD4.R.V RPPA level (Average): 0.935
CD5.M.C RPPA level (Average): 1.029
CD20.R.C RPPA level (Average): 1.026
CD26.R.V RPPA level (Average): 0.948
CD29.M.V RPPA level (Average): 1.016
CD31.M.V RPPA level (Average): 1.034
CD38.R.C RPPA level (Average): 0.977
CD44.R.C RPPA level (Average): 1.010
CD45.M.V RPPA level (Average): 1.023
CD49b.M.V RPPA level (Average): 1.014
CD68.M.C RPPA level (Average): 1.034
CD134.R.V RPPA level (Average): 1.019
CD171.M.V RPPA level (Average): 0.898
CDK1_pT14.R.C RPPA level (Average): 0.932
CDK9.R.V RPPA level (Average): 1.014
CDT1.R.V RPPA level (Average): 1.048
CENP.A.R.V RPPA level (Average): 1.017
CHD1L.R.V RPPA level (Average): 1.034
CIITA.R.C RPPA level (Average): 1.018
COG3.R.V RPPA level (Average): 1.062
CRABP1.R.C RPPA level (Average): 1.050
CREB_pS133.R.C RPPA level (Average): 1.130
Calnexin.R.V RPPA level (Average): 1.046
Caspase.3.cleaved.R.C RPPA level (Average): 0.944
Caspase.7.cleaved..R.C RPPA level (Average): 0.997
Caspase.8.M.Q RPPA level (Average): 0.957
Caspase.8.cleaved.R.C RPPA level (Average): 0.988
Caveolin.1.R.V RPPA level (Average): 0.941
Cdc6.R.V RPPA level (Average): 0.971
Cdc42.R.C RPPA level (Average): 0.986
Chk1.M.C RPPA level (Average): 1.082
Chk1_pS345.R.C RPPA level (Average): 0.961
Chk2.M.V RPPA level (Average): 1.026
Chk2_pT68.R.C RPPA level (Average): 1.020
Claudin.7.R.V RPPA level (Average): 1.203
Collagen.VI.R.V RPPA level (Average): 1.025
Complex.II.Subunit.M.V RPPA level (Average): 1.017
Connexin.43.R.C RPPA level (Average): 1.031
Coup.TFII.R.C RPPA level (Average): 0.889
Cox2.R.C RPPA level (Average): 0.972
Cox.IV.R.V RPPA level (Average): 0.954
Creb.R.C RPPA level (Average): 0.986
CtIP.R.V RPPA level (Average): 0.940
Cyclin.B1.R.V RPPA level (Average): 0.940
Cyclin.D1.R.C RPPA level (Average): 1.061
Cyclin.D3.M.V RPPA level (Average): 1.058
Cyclin.E1.R.V RPPA level (Average): 1.006
Cyclophilin.F.M.V RPPA level (Average): 0.965
D.a.Tubulin.R.V RPPA level (Average): 0.976
DAPK2.R.C RPPA level (Average): 0.971
DDB.1.R.V RPPA level (Average): 0.857
DDR1.R.V RPPA level (Average): 1.028
DDR1_pY513.R.C RPPA level (Average): 1.051
DJ1.R.V RPPA level (Average): 1.016
DM.Histone.H3.R.V RPPA level (Average): 0.928
DNA.Ligase.IV.R.C RPPA level (Average): 1.003
DNA_POLG.R.V RPPA level (Average): 1.013
RPPA A.Raf.R.V (Average): 0.917
RPPA ACC1.R.C (Average): 0.919
RPPA ACC_pS79.R.V (Average): 0.878
RPPA ACLY_pS455.R.V (Average): 1.125
RPPA ACSL1.R.V (Average): 0.971
RPPA ADAR1.M.V (Average): 1.083
RPPA ALKBH5.R.V (Average): 1.027
RPPA AMPK.a2_pS345.R.V (Average): 1.001
RPPA AMPKa.R.C (Average): 0.982
RPPA AMPKa_pT172.R.C (Average): 1.263
RPPA AR.R.V (Average): 0.922
RPPA ASNS.R.V (Average): 0.960

— publication PMC9127750, “Structure-based design of CDC42 effector interaction inhibitors for the treatment of cancer” (Cell reports, 2022)
